As usually defined, the EC50 is the concentration that produces a half-maximal response. A lower EC50 goes with greater potency.

The values that follow come from patent publication US12479794B2, “Acetophenone oxime compound and application thereof” (Medshine Discovery Inc., priority 2020, dated 2025).

Data set [1] is described as follows: Metabolite identification after incubation in human liver microsomes with NADPH. As to conditions: 10 μM, 37° C., 1 hour. It is filed as in vitro ADME. The protocol:
Assay Example 4: Analysis and Identification of Metabolites of the Compound in Human Liver Microsome and Hepatocyte Incubation System
By using high-resolution mass spectrometry, the metabolite produced by the incubation of compound 32B in human liver microsomes and human hepatocytes was found, and identified for its structure; the percentage content of compound 32B and its metabolite was calculated by using LC-UV; and the possible biotransformation pathway of compound 32B in human liver microsomes and human hepatocytes in vitro was studied.
Compound 32B (10 μM) was incubated in a system containing both of human liver microsomes and NADPH at 37° C. for 60 min. 7-ethoxycoumarin (7-EC, 10 μM) was used as a positive control to evaluate the enzymatic metabolic activity in the liver microsome incubation system. The incubated sample was analyzed by LC-UV-HRMS. The structure of each metabolite was resolved and identified based on its primary and secondary mass spectrometry signals and/or comparison with a standard. The relative percentage of the UV-integrated peak area of each metabolite was given through data collected from the sample by LC-UV-HRMS, and the possible structure of the metabolite and its possible metabolic pathway in various genera of liver microsomes were inferred from the mass spectrometry information of the metabolite.
Background: Liver microsomes are vesicles of endoplasmic reticulum, rich in cytochrome P450 enzymes.

Another data set deals with T1, S1P2 (Homo sapiens, UniProt O95136).
T1 construct: expressed in transfected cells
Put plainly: In vitro agonistic activity on S1P2, PathHunter cell line. The data set is classed as cell-based. As to conditions: PathHunter cells. As for the experimental part:
(§1) Assay Example 5: In Vitro Evaluation of the Agonistic Activity of the Compound of the Present Disclosure on S1P2, S1P3 and S1P4
(§2) Object of the assay: To detect the agonistic activity of the compound on S1P2, S1P3, and S1P4
(§3) • 1. PathHunter cell line was expanded from freezer according to standard procedures. • 2. Cells were seeded into a white 384-well microplate in a total volume of 20 μL and incubated at 37° C. for an appropriate time prior to testing. II. Agonist Assay • 1. For the agonist assay, cells were incubated with a sample to induce a response. • 2. Stock solution was stored in a buffer at a concentration of 5 times the concentration to be tested. • 3. 5 μl of the stock solution sample at a concentration of 5 times the concentration to be tested was added to the cells and incubated at 37° C. or room temperature for 90-180 min with a vehicle concentration of 1%. III. Signal Detection • 1. […] Chemiluminescent Signal detection was performed using a PerkinElmer Envision™ instrument, and the microplate was read after signal generation. […] The activity of the compound was analyzed using the CBIS data analysis suite (ChemInnovation, CA). • 2. For the agonist mode assay, the percent activity was calculated using the following formula: % Activity=100%×(Mean RLU of the Assay Sample−Mean RLU of the Blank Control)/(Mean MAX Control Ligand−Mean RLU of the Blank Control).

Another data set addresses T2, S1P4 (Homo sapiens, UniProt O95977).
T2 construct: expressed in transfected cells
T2 sequence (O95977 1-384): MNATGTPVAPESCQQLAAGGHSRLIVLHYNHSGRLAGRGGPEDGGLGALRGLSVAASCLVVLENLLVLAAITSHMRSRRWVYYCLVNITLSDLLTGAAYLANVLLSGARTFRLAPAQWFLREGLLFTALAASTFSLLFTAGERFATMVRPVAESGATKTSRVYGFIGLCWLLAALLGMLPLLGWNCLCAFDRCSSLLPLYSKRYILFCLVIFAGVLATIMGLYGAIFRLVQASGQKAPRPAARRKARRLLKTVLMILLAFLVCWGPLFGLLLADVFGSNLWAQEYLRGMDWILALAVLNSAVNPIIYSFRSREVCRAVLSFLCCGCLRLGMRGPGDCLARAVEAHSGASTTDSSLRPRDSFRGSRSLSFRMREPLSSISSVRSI
Description: In vitro agonistic activity on S1P4, PathHunter cell line. The data set is classed as cell-based. As to conditions: PathHunter cells. The protocol:
as §1, §2, §3

T1 sequence (O95136 whole entry): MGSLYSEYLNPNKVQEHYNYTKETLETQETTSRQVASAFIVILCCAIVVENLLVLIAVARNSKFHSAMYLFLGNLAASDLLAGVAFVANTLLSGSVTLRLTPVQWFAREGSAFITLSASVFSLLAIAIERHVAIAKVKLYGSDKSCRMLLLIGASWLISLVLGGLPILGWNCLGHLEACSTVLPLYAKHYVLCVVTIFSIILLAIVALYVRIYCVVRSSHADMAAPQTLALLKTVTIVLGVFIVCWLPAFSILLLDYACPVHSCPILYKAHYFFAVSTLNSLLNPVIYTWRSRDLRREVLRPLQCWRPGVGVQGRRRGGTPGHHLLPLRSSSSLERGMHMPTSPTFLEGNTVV

Turning to `CC(=NOCc1ccc(OC(C)C)c(C(F)(F)F)c1)c1ccc2c(c1)CCC2N1CC(C(=O)O)C1` (single isomer, unassigned) [Compound 32B], the Metabolites detected result in data set [1] is “no other metabolite was detected”. Also, the “Relative abundance of the original drug” value in data set [1] stood at 100.00%. Also, the EC50 at S1P2 and at S1P4 was above 300 nM in each case.
